In ChEMBL document CHEMBL1145498, “A systematic interaction map of validated kinase inhibitors with Ser/Thr kinases” (Proc Natl Acad Sci U S A, 2007):

Legend:
[1] = molecular target: Dual specificity mitogen-activated protein kinase kinase 2 (Homo sapiens, UniProt P36507)
[2] = molecular target: Calcium/calmodulin-dependent protein kinase type 1G (Homo sapiens) (UniProt Q96NX5)
[3] = molecular target: Casein kinase I isoform gamma-1 (Homo sapiens) (UniProt Q9HCP0)
[4] = molecular target: T1, Mitogen-activated protein kinase kinase kinase 5 (Homo sapiens) (UniProt Q99683)
T1 sequence (whole entry): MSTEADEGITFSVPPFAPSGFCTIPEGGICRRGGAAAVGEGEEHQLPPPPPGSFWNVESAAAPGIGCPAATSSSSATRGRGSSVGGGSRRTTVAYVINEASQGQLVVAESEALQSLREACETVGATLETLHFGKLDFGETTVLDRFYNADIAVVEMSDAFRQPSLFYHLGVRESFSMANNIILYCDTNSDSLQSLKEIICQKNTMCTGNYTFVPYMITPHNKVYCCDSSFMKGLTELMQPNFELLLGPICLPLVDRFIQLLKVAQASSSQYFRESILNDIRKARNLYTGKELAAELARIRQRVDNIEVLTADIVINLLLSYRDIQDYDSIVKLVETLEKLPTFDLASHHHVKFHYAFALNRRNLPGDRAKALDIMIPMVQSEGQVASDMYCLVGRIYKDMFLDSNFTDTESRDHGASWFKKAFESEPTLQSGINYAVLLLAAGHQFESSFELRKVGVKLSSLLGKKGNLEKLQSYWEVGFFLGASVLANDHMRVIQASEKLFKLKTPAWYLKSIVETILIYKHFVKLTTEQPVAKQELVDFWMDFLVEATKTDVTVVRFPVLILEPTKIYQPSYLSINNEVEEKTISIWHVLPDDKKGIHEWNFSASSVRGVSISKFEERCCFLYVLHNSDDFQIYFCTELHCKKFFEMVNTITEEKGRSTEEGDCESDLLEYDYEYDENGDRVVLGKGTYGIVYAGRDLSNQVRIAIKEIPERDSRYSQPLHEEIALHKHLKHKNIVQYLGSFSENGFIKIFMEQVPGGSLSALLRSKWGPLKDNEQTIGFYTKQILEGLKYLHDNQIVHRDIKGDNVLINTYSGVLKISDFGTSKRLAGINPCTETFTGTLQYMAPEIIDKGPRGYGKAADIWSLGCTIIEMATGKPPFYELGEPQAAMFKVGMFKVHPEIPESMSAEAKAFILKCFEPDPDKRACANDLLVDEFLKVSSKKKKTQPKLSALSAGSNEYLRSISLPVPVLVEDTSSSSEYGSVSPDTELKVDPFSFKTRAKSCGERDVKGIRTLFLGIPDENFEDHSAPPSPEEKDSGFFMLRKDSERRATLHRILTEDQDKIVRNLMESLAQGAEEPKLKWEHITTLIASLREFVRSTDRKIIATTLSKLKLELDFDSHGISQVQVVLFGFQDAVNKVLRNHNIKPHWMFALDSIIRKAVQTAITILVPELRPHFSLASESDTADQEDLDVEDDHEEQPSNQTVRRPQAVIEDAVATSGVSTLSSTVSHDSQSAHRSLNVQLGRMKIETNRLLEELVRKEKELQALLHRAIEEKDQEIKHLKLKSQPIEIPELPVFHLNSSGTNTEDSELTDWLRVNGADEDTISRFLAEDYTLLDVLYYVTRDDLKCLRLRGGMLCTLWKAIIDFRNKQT

[5] = molecular target: Calcium/calmodulin-dependent protein kinase type II subunit beta (Homo sapiens) (UniProt Q13554)
Sequence of Calcium/calmodulin-dependent protein kinase type II subunit beta (Homo sapiens) (Q13554 whole entry): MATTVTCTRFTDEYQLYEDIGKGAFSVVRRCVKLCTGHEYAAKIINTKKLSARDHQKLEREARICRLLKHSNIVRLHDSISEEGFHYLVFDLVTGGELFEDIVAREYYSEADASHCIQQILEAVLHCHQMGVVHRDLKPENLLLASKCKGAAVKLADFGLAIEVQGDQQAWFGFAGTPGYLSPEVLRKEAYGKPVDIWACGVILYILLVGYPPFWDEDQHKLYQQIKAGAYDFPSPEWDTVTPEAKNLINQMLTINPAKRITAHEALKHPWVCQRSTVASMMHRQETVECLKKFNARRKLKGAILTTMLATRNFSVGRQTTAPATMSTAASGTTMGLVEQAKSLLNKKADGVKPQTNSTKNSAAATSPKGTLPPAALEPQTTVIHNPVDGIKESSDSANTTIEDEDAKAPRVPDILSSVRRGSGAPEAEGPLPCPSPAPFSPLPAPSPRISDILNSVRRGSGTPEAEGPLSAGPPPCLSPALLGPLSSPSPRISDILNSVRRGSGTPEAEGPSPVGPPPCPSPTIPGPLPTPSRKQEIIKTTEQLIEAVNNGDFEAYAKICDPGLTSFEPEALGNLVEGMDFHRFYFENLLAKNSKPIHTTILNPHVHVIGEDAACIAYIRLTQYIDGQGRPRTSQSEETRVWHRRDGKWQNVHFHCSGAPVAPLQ

[6] = molecular target: Serine/threonine-protein kinase 26 (Homo sapiens) (UniProt Q9P289)
Sequence of Serine/threonine-protein kinase 26 (Homo sapiens) (Q9P289 2-416 limits assumed): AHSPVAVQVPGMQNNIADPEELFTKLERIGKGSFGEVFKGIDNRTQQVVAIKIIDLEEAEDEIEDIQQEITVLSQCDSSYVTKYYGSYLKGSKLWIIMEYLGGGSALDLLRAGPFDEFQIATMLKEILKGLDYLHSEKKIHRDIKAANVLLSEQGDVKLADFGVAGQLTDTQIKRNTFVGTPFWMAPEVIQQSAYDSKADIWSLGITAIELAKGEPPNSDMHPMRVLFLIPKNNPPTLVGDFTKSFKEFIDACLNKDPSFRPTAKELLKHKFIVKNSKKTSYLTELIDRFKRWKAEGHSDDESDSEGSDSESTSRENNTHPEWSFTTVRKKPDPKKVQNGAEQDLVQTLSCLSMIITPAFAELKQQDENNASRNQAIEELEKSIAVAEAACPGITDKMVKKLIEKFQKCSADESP

[7] = molecular target: Ribosomal protein S6 kinase alpha-3 (Homo sapiens) (UniProt P51812)
Sequence of Ribosomal protein S6 kinase alpha-3 (Homo sapiens) (P51812 whole entry): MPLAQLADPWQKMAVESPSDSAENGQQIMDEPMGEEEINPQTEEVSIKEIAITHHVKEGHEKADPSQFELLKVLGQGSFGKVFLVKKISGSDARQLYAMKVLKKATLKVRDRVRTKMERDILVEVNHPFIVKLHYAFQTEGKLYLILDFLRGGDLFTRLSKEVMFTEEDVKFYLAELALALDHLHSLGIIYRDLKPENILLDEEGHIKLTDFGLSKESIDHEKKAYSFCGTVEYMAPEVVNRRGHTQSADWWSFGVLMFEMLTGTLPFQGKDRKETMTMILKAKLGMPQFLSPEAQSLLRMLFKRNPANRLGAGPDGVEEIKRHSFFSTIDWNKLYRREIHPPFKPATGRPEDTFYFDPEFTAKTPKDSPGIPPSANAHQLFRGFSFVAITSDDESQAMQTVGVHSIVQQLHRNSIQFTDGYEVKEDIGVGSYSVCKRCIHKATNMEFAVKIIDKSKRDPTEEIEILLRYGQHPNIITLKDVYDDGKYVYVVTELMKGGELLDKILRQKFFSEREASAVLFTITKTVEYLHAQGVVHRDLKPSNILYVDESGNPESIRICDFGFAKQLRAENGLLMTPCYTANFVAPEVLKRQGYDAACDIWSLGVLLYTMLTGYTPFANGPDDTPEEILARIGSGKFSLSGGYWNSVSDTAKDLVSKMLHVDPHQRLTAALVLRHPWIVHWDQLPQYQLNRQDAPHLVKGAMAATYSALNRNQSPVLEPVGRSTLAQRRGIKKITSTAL

[8] = molecular target: Death-associated protein kinase 3 (Homo sapiens) (UniProt O43293)
[9] = molecular target: Mitogen-activated protein kinase 6 (Homo sapiens) (UniProt Q16659)
Sequence of Mitogen-activated protein kinase 6 (Homo sapiens) (Q16659 whole entry): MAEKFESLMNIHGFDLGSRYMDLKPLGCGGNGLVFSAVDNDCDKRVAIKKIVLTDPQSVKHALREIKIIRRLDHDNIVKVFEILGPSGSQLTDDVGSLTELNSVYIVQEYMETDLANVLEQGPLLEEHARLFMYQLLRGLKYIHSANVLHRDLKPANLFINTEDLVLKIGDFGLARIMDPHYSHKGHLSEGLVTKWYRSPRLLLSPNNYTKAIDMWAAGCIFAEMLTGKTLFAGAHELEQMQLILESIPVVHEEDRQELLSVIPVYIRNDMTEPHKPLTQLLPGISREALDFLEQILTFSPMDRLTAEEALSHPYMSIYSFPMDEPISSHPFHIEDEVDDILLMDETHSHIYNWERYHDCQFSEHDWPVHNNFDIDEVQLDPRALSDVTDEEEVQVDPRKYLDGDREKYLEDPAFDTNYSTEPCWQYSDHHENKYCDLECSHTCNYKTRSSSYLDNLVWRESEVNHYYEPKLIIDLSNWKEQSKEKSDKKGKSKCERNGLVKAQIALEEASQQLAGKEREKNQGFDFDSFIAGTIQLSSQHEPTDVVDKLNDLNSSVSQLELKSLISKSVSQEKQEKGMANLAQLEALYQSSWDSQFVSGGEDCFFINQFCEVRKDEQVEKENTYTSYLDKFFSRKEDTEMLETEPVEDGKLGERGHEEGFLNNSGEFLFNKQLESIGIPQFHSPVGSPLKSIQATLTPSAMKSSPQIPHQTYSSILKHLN

[10] = molecular target: Serine/threonine-protein kinase OSR1 (Homo sapiens) (UniProt O95747)
Sequence of Serine/threonine-protein kinase OSR1 (Homo sapiens) (O95747 2-527 limits assumed): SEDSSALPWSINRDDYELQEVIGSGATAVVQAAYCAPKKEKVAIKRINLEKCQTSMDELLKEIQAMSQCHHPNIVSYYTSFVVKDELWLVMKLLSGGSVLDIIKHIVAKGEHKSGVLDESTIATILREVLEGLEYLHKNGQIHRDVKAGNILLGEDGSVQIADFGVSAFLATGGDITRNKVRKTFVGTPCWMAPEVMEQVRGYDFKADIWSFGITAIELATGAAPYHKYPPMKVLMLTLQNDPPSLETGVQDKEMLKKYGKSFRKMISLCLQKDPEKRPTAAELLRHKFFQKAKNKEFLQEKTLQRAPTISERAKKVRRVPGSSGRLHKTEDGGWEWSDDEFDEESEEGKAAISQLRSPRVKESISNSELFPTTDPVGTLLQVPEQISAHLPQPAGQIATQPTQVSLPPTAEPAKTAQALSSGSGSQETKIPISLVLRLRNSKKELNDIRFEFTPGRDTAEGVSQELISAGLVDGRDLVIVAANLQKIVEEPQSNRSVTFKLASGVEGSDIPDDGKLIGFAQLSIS

[11] = molecular target: T2, Serine/threonine-protein kinase 17A (Homo sapiens) (UniProt Q9UEE5)
T2 sequence (whole entry): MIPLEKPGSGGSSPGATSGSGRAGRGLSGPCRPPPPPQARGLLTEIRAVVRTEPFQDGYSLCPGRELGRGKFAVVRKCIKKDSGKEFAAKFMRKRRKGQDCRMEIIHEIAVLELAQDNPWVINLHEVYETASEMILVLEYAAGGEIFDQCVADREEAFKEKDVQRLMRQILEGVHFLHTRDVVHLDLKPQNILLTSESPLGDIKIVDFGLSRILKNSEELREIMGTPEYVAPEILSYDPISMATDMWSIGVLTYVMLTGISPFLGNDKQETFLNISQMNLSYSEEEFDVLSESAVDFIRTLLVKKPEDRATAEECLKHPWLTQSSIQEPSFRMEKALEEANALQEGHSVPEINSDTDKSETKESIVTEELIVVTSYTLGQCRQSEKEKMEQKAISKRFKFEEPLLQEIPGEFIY

[12] = molecular target: Cyclin-dependent kinase-like 1 (Homo sapiens) (UniProt Q00532)
[13] = molecular target: Serine/threonine-protein kinase RIO2 (Homo sapiens) (UniProt Q9BVS4)
Sequence of Serine/threonine-protein kinase RIO2 (Homo sapiens) (Q9BVS4 whole entry, looked up): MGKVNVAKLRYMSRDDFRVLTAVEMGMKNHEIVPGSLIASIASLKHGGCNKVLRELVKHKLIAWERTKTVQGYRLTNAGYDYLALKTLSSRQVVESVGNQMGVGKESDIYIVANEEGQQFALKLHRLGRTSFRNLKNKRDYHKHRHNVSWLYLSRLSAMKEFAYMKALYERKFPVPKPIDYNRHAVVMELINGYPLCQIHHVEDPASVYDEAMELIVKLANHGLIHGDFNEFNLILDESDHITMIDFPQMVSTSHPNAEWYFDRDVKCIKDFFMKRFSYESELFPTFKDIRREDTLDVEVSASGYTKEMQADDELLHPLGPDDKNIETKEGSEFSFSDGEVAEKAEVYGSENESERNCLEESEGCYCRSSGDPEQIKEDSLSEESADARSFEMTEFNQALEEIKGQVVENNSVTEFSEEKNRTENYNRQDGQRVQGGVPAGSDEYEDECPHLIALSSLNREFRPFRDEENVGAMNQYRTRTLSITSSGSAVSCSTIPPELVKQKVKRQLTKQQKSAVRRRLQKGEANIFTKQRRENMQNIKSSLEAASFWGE

[14] = molecular target: T3, Dual specificity mitogen-activated protein kinase kinase 6 (Homo sapiens) (UniProt P52564)
T3 sequence (whole entry): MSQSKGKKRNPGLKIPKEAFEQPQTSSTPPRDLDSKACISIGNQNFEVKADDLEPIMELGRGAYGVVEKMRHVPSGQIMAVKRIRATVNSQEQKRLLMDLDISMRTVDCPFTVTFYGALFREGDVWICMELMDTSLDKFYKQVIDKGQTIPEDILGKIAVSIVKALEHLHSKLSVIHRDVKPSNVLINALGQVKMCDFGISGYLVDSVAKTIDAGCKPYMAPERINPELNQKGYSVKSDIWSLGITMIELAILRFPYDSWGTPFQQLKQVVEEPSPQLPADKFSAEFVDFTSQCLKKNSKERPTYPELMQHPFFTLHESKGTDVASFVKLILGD

Sequence of Casein kinase I isoform gamma-1 (Homo sapiens) (Q9HCP0 whole entry, looked up, canonical isoform): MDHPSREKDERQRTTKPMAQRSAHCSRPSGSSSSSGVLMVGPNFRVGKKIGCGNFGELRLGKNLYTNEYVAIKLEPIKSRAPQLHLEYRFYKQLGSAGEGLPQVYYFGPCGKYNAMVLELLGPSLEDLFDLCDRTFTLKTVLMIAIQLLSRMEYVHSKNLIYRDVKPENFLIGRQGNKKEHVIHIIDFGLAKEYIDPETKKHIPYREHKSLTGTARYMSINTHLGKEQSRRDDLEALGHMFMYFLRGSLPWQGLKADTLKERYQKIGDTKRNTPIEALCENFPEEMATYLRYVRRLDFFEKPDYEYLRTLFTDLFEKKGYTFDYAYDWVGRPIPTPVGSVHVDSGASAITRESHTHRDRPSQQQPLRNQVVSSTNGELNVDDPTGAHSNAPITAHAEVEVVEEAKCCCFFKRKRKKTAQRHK
Sequence of Calcium/calmodulin-dependent protein kinase type 1G (Homo sapiens) (Q96NX5 whole entry, canonical isoform): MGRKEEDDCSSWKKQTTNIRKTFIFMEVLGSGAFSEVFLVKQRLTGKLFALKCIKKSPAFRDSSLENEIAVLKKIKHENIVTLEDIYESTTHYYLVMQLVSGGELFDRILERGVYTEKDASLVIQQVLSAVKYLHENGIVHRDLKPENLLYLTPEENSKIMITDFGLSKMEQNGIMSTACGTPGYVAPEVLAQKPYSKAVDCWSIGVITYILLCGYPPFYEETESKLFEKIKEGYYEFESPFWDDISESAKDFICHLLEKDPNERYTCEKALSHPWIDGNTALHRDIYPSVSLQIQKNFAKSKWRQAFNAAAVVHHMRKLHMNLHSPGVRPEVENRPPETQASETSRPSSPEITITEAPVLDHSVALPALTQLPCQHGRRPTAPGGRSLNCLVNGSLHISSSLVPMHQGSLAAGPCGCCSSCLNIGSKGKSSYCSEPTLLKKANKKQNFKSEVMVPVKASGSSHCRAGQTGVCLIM
Sequence of Dual specificity mitogen-activated protein kinase kinase 2 (P36507 whole entry): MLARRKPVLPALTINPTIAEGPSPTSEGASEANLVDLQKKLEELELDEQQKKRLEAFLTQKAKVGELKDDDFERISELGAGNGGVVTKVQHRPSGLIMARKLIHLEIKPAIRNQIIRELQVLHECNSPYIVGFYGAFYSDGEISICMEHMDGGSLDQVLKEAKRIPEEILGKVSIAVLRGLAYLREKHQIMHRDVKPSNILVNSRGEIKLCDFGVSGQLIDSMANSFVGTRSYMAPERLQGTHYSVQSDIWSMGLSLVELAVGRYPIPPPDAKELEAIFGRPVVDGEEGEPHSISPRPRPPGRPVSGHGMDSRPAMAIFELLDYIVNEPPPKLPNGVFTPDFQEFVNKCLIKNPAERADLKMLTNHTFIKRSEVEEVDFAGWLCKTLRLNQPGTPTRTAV

SMILES	ΔTm [1] [°C]	ΔTm [2] [°C]	ΔTm [3] [°C]	ΔTm [4] [°C]	ΔTm [5] [°C]	ΔTm [6] [°C]	ΔTm [7] [°C]	ΔTm [8] [°C]	ΔTm [9] [°C]	ΔTm [10] [°C]	ΔTm [11] [°C]	ΔTm [12] [°C]	ΔTm [13] [°C]	ΔTm [14] [°C]
NCCNS(=O)(=O)c1cccc2c(Cl)cccc12	-0.3	0	0.5	0.4	0.4	-0.1	0.5	3.2	0.3	0.7	1	-0.1	0.2	-0.1
CC(=O)O/N=C1/C(=C2/C(=O)Nc3cc(Br)ccc32)Nc2ccccc21 [6-BROMOINDIRUBIN-3'-ACETOXIME]	3.1	-0.6	0.6	-0.2	0.9	0.1	2.5	-1.3	0.3	-1.1	3	3.2	1.7	0.8
C[C@@H]1C[C@H]2O[C@@H]2/C=C\C=C\C(=O)Cc2c(Cl)c(O)cc(O)c2C(=O)O1 [RADICICOL]	0	0.6	0.3	-0.2	0.1	0.9	0.2	-0.3	0.4	1.4	1	-0.2	-0.5	0
N=C(N)NCCNS(=O)(=O)c1cccc2cnccc12	-0.6	-0.4	-0.3	0.1	0.4	0.1	0.4	2	0.4	1.1	0.6	0	1.5	-0.1
C[S+]([O-])c1ccc(CSc2nc(-c3ccc(F)cc3)c(-c3ccncc3)[nH]2)cc1 (stereo not drawn)	-0.4	0	0.2	0.9	0	0	0.1	0.4	-0.2	0.1	0	0.2	0.2	0.1
NS(=O)(=O)c1ccc(Nc2nc(OCC3CCCCC3)c3nc[nH]c3n2)cc1	0.8	1.6	2.6	2.4	0.6	5.7	1.3	0.8	1	1	1.8	0.6	4	2
CCOC(=O)c1cnc2oc3ccc(O)cc3c2c1-c1ccccc1	0.5	0.1	1.2	2.1	0.4	0	4.4	0.8	0.2	1.3	2	-0.3	1.2	1.9
